Data taken from US20170088546A1 (priority 2014, published 2017).
Like-named read-outs stand apart in the source and are kept apart here.

Columns and labels:
[1] = target: Smurf-1 (Homo sapiens, UniProt Q9HCE7); assay: biochemical; type: biochemical
Description: (§1) To determine the HECT E3 ligase selectivity of the compounds, a panel of biochemical HECT E3 ligase autoubiquitinylation assays was employed (Smurf-1, Smurf-2, WWP1, WWP2, ITCH, Nedd4, Nedd4L and E6AP). The conjugation of ubiquitin to a protein substrate is a multistep process. In an initial ATP-requiring step, a thioester bond is formed between the carboxyl terminus of ubiquitin and an internal cystein residue of the ubiquitin-activating enzyme (E1). Activated ubiquitin is then transferred to a specific cystein residue of an ubiquitin-conjugating enzyme (E2). E2s donate ubiquitin to a HECT E3 ligase (E3) from which it is transferred to the substrate protein. HECT E3 ligases can auto-ubiquitinylate. This event is detected in the TR-FRET (Time-Resolved Fluorescence Resonance Energy Transfer) assay used in this panel. The reaction mix contains E1, E2, tagged-E3, biotin-conjugated ubiquitin, the compound and ATP in a suitable buffer and is incubated for 45 minutes to allow auto-ubiquitinylation of the E3 ligase. To measure the extent of ubiquitinylated E3 ligase by TR-FRET, the donor fluorophore Europium cryptate (Eu3+ cryptate), conjugated to streptavidin which subsequently binds to biotinylated ubiquitin, and the modified allophycocyanin XL665 (HTRF® primary acceptor fluorophore) coupled to a tag-specific antibody (HA, His or GST), which recognizes the respective E3 ligase fusion proteins, are added after the reaction is complete. When these two fluorophores are brought together by a biomolecular interaction (in this case ubiquitinylation of the E3 ligase), a portion of the energy captured by the Cryptate during excitation is released through fluorescence emission at 620 nm, while the remaining energy is transferred to XL665. This energy is then released by XL665 as specific fluorescence at 665 nm. Light at 665 nm is emitted only through FRET with Europium.
(§2) Test and reference compounds are prepared at 180×[final] in 90% DMSO, and diluted 1:3 in 90% DMSO.
(§3) For the biochemical assay panel, 50 nl of the test compounds, reference compounds and buffer/DMSO control are transferred to the respective wells of a 384-well white GREINER “SMALL VOLUME” PS plate. The assay panel is run at room temperature on a Biomek FX liquid handling workstation. To the assay plates containing 50 nl compound or control solutions in 90% DMSO, 4.5 ul of E3 ligase solution were added per well, followed by 4.5 ul of the pre-incubated E1/E2/Ub mix or the pre-diluted ubiquitin (LOW control). Plates are shaken vigorously after each addition. In this assay the compound concentrations range from 3 nM to 10 uM in an 8-point dose-response curve.
(§4) After an incubation time of 45 min in the dark, the plates are transferred into the Pherastar fluorescence reader to measure the TR-FRET signal.

[2] = target: Smurf-2 (Homo sapiens, UniProt Q9HAU4); assay: HECT E3 ligase autoubiquitinylation TR-FRET assay, Smurf-2; type: biochemical
Chain of Smurf-2 (Q9HAU4 whole entry, species assumed): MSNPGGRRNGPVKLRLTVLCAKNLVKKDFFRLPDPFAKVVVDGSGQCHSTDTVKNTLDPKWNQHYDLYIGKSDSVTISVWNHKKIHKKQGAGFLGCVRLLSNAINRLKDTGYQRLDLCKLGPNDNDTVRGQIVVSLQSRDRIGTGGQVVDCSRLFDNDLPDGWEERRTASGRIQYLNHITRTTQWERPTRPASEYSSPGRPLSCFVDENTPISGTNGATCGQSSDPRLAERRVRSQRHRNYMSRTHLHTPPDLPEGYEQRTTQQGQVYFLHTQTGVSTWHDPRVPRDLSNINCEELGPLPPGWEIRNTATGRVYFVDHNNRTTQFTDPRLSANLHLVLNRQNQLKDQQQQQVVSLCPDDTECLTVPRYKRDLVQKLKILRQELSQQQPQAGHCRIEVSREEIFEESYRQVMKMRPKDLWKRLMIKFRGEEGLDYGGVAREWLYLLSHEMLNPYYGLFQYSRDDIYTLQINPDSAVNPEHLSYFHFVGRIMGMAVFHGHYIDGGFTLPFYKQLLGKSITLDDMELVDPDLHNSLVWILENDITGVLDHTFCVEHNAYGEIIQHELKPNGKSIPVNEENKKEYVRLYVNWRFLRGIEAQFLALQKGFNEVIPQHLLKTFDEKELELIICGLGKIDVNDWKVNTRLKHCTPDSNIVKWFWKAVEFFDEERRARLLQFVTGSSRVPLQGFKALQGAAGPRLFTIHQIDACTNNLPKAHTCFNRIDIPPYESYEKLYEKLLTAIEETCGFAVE
Description: as §1, §2, §3, §4

[3] = biochemical autoubiquitinylation TR-FRET, 45 min incubation, 8-point dose-response 3 nM to 10 uM
[4] = biochemical autoubiquitinylation TR-FRET, 45 min incubation, 8-point dose-response 3 nM to 10 uM, read-out: Smurf-2/IC50

Chain of Smurf-1 (Q9HCE7 whole entry): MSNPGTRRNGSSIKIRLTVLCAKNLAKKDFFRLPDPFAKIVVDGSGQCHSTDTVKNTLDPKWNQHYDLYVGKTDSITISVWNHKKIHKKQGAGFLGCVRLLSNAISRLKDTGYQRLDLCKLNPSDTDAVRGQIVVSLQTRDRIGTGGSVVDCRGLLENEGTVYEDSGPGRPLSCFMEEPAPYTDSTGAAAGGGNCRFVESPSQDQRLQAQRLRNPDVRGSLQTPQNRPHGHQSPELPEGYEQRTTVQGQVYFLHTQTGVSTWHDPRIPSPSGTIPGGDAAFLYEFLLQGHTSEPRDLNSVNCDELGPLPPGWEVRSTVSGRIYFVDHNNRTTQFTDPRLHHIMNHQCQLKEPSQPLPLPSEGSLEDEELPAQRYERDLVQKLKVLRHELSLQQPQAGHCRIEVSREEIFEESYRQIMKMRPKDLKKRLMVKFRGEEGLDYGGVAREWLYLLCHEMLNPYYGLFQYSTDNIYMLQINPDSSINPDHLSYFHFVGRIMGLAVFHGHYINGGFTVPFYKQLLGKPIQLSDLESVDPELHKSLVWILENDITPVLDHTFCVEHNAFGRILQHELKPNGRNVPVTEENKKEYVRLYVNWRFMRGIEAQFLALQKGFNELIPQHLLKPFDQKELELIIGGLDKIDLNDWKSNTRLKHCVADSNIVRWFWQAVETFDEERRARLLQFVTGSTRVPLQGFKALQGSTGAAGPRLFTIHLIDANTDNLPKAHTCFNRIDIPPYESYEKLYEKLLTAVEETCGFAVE

Compound	IC50 [1, 3] [nM]	IC50 [2, 4] [nM]	IC50 [2] [nM]	IC50 [1] [nM]
Cc1c(NC(=O)c2noc3c2CCCc2cc(OC(F)(F)F)ccc2-3)c(=O)n(-c2c(Cl)cccc2Cl)n1C [Example 41, N-(2-(2,6-dichlorophenyl)-1,5-dimethyl-3-oxo-2,3-dihydro-1H-pyrazol-4-yl)-8-(trifluoromethoxy)-5,6-dihydro-4H-benzo[3,4]cyclohepta[1,2-d]isoxazole-3-carboxamide]	4.5	390	–	–
Cc1c(NC(=O)c2noc3c2CCCc2cc(OC(F)(F)F)ccc2-3)c(=O)n(C2CCCCC2)n1C [Example 45, N-(2-cyclohexyl-1,5-dimethyl-3-oxo-2,3-dihydro-1H-pyrazol-4-yl)-8-(trifluoromethoxy)-5,6-dihydro-4H-benzo[3,4]cyclohepta[1,2-d]isoxazole-3-carboxamide]	2.2	175	–	–
Cc1c(NC(=O)c2noc3c2CCSc2cc(OC(F)(F)F)ccc2-3)c(=O)n(-c2ccccc2F)n1C [Example 46, N-(2-(2-fluorophenyl)-1,5-dimethyl-3-oxo-2,3-dihydro-1H-pyrazol-4-yl)-8-(trifluoromethoxy)-4,5-dihydrobenzo[6,7]thiepino[4,5-d]isoxazole-3-carboxamide]	31.5	–	> 10000	–
Cc1c(NC(=O)c2noc3c2CCSc2ccccc2-3)c(=O)n(-c2ccccc2)n1C [Example 47, N-(1,5-dimethyl-3-oxo-2-phenyl-2,3-dihydro-1H-pyrazol-4-yl)-4,5-dihydrobenzo[6,7]thiepino[4,5-d]isoxazole-3-carboxamide]	1130	–	> 10000	–
Cc1c(NC(=O)c2noc3c2CC2C(c4ccccc4-3)C2(Cl)Cl)c(=O)n(-c2ccccc2)n1C (stereo not drawn) [Example 50, 9,9-dichloro-N-(1,5-dimethyl-3-oxo-2-phenyl-2,3-dihydro-1H-pyrazol-4-yl)-8,8a,9,9a-tetrahydrobenzo[3,4]cyclopropa[5,6]cyclohepta[1,2-d]isoxazole-7-carboxamide]	462	–	> 10000	–
Cc1c(NC(=O)c2noc3c2CCCCc2ccccc2-3)c(=O)n(-c2ccccc2)n1C [Example 51, N-(1,5-dimethyl-3-oxo-2-phenyl-2,3-dihydro-1H-pyrazol-4-yl)-4,5,6,7-tetrahydrobenzo[3,4]cycloocta[1,2-d]isoxazole-3-carboxamide]	658	–	> 10000	–
COc1ccc2c(c1)CCCCc1c(C(=O)Nc3c(C)n(C)n(-c4ccccc4F)c3=O)noc1-2 [Example 53, N-(2-(2-fluorophenyl)-1,5-dimethyl-3-oxo-2,3-dihydro-1H-pyrazol-4-yl)-9-methoxy-4,5,6,7-tetrahydrobenzo[3,4]cycloocta[1,2-d]isoxazole-3-carboxamide]	132	–	> 10000	–
COc1ccc2c(c1)OCCCc1c(C(=O)Nc3c(C)n(C)n(C4CCCCC4)c3=O)noc1-2 [Example 54, N-(2-cyclohexyl-1,5-dimethyl-3-oxo-2,3-dihydro-1H-pyrazol-4-yl)-9-methoxy-5,6-dihydro-4H-benzo[2,3]oxocino[5,4-d]isoxazole-3-carboxamide]	–	–	> 10000	192
COc1ccc(Cn2c(=O)c(NC(=O)c3noc4c3CCCc3cc(OC)ccc3-4)c(C)n2C)cc1 [Example 55, 8-methoxy-N-(2-(4-methoxybenzyl)-1,5-dimethyl-3-oxo-2,3-dihydro-1H-pyrazol-4-yl)-5,6-dihydro-4H-benzo[3,4]cyclohepta[1,2-d]isoxazole-3-carboxamide]	9900	–	> 10000	–
